Laboratory results: ChEMBL document CHEMBL2074011, “Comparison of furosemide and vinblastine secretion from cell lines overexpressing multidrug resistance protein (P-glycoprotein) and multidrug resistance-associated proteins (MRP1 and MRP2)” (Pharmacology, 2002)

Columns and labels:
[1] = biological target: ATP-binding cassette sub-family C member 2 (Homo sapiens, UniProt Q92887); assay: TP_TRANSPORTER: inhibition of Vinblastine transepithelial transport (basal to apical)(Vinblastine: 0.035 uM, Sulfinpyrazone: 1000 uM) in MRP2-expressing MDCKII cells; format: functional, cell-based; details: dog, mdck-ii
[2] = biological target: Multidrug resistance-associated protein 1 (Homo sapiens, UniProt P33527); assay: TP_TRANSPORTER: transepithelial transport (basal to apical) in MRP1-expressing LLC-PK1cell; format: functional, cell-based; details: pig, llc-pk1
Multidrug resistance-associated protein 1, sequence (P33527 whole entry): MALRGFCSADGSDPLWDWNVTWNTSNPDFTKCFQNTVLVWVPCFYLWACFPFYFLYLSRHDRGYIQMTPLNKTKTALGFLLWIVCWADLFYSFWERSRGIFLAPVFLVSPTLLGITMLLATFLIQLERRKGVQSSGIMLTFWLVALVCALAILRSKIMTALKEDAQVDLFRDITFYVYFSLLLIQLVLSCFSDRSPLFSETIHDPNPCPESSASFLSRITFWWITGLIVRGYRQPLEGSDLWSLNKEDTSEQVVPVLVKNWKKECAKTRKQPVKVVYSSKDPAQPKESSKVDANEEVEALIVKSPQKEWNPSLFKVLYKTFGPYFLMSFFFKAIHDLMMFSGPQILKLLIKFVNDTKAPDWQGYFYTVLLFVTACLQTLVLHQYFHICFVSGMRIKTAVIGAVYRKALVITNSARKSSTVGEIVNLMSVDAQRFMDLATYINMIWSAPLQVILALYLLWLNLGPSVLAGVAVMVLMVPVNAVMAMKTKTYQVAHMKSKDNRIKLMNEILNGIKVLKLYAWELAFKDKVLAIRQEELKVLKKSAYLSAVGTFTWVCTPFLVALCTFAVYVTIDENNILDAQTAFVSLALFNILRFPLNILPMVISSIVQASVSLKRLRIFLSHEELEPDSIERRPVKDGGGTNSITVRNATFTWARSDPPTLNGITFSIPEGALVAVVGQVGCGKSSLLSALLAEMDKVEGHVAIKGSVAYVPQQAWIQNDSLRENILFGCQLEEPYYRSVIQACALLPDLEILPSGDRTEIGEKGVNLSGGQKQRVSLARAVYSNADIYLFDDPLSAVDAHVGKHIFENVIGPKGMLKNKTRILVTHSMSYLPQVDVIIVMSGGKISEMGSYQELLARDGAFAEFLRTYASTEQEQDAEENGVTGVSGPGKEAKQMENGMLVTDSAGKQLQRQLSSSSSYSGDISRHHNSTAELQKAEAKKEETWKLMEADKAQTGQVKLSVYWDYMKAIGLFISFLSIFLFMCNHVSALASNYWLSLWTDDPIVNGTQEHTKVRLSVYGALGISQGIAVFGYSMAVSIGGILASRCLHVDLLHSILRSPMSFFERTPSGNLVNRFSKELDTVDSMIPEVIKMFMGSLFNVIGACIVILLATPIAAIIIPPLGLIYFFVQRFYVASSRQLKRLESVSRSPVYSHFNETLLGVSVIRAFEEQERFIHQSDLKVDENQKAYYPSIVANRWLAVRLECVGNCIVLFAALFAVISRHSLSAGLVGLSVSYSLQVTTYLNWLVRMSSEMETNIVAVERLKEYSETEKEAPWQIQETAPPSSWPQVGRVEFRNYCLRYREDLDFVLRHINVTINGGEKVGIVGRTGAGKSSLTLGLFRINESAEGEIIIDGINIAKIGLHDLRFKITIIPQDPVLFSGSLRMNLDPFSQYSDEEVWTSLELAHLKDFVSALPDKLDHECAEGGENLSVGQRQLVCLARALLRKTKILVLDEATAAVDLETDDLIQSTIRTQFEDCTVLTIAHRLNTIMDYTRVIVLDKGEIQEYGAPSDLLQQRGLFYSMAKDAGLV

ATP-binding cassette sub-family C member 2, sequence (Q92887 whole entry): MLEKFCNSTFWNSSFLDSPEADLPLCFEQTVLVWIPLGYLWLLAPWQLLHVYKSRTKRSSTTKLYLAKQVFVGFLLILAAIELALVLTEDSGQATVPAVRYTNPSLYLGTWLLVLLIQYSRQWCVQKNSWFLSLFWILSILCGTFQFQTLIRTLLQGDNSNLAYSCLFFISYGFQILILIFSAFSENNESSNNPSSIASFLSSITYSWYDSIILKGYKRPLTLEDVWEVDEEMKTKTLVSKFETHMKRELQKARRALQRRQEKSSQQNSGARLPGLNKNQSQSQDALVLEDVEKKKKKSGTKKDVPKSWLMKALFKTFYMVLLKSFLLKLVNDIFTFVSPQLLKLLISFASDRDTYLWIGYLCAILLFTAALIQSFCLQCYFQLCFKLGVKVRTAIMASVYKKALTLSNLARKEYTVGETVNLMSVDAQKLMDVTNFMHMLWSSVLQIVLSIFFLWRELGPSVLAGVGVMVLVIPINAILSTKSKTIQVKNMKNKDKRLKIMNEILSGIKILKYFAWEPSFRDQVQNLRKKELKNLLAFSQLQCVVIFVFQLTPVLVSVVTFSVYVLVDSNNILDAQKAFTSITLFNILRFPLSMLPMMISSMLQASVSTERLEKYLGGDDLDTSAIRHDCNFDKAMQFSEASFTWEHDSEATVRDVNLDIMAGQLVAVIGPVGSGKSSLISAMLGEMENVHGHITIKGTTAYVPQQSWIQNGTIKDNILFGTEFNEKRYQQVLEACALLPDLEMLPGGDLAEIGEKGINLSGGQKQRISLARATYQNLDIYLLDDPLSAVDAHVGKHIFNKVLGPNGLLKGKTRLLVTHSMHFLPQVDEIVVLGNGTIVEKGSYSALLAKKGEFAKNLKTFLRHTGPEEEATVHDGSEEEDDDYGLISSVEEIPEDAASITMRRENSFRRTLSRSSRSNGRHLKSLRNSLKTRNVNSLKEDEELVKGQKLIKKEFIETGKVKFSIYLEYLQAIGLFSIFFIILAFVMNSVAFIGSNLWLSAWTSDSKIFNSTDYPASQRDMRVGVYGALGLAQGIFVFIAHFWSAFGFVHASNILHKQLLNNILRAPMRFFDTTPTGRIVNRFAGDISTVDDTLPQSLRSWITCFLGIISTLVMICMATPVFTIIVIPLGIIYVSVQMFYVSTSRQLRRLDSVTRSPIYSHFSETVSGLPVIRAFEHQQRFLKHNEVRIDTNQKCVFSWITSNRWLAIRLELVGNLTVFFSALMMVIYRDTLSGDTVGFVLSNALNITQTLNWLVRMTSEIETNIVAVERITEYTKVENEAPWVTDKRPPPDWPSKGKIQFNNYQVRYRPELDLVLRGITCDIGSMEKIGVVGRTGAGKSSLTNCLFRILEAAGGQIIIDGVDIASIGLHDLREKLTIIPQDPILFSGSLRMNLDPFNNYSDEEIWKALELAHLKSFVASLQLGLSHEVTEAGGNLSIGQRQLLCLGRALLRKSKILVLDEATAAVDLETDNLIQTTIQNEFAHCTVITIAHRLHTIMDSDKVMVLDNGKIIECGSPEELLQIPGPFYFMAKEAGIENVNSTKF

Row | SMILES | Activity [1] | Activity [2]
1 | O=C1C(CC[S+]([O-])c2ccccc2)C(=O)N(c2ccccc2)N1c1ccccc1 (configuration not stated) [SULFINPYRAZONE] | inhibitor [+] | 
2 | CC[C@]1(O)C[C@@H]2CN(CCc3c([nH]c4ccccc34)[C@@](C(=O)OC)(c3cc4c(cc3OC)N(C)[C@H]3[C@@](O)(C(=O)OC)[C@H](OC(C)=O)[C@]5(CC)C=CCN6CC[C@]43[C@@H]65)C2)C1 [VINBLASTINE] |  | substrate [+]
